The text below walks through data of ChEMBL document CHEMBL4613301, “Molecular Docking Studies of Royleanone Diterpenoids from Plectranthus spp. as P-Glycoprotein Inhibitors” (ACS Med Chem Lett, 2020).

Common to all, as to format: cell-based
Data set [1] addresses T1, ATP-dependent translocase ABCB1 (Homo sapiens, UniProt P08183). The data set is described as follows: Inhibition of P-gp in human NCI-H460/R cells assessed as mean fluorescence intensity of Rhodamine 123 at 20 uM (reference value: 16.96).
The target in data set [2] is T1, ATP-dependent translocase ABCB1. The data set is described as follows: Inhibition of P-gp in human NCI-H460/R cells assessed as fluorescence activity ratio at 20 uM relative to control.
The target is the same in data set [3]. The data set is described as follows: Ratio of inhibition of P-gp in human NCI-H460/R cells assessed as mean fluorescence intensity at 20 uM relative to control.

T1 sequence (P08183 whole entry): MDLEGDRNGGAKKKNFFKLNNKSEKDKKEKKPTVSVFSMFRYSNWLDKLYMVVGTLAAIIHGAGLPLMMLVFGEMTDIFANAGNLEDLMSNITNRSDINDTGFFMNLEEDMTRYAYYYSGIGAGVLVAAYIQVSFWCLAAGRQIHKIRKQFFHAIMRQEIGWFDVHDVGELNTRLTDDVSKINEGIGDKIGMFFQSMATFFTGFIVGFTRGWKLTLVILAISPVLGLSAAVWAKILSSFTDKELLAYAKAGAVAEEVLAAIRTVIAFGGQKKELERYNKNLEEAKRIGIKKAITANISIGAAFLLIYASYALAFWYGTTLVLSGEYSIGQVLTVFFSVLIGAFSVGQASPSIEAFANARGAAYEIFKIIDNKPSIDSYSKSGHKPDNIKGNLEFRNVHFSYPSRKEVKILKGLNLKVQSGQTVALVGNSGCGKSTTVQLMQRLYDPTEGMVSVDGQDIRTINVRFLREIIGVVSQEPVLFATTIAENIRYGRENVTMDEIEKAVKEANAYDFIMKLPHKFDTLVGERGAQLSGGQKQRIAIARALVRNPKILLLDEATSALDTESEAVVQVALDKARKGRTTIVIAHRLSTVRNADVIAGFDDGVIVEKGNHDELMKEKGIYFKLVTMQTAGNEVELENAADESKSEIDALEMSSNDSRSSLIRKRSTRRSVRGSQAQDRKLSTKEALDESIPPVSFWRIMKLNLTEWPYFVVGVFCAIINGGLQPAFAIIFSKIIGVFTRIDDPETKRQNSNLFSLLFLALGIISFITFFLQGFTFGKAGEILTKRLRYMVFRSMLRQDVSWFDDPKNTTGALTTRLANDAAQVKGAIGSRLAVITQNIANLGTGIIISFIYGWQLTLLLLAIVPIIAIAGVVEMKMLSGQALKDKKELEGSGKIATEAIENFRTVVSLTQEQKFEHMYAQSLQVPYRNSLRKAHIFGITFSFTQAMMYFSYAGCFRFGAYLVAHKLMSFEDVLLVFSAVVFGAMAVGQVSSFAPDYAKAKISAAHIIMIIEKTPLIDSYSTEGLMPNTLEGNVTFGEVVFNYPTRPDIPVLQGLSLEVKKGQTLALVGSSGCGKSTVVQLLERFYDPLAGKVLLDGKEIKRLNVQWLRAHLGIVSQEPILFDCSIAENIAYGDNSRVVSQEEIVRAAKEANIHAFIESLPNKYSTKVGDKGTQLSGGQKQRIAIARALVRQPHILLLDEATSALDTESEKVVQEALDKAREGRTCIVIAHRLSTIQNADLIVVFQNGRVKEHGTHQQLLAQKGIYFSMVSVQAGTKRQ

Consider `CC(=O)O[C@H]1C2=C(C(=O)C(OC(=O)c3ccccc3)=C(C(C)C)C2=O)[C@@]2(C)CCCC(C)(C)[C@@H]2[C@@H]1O`, for which the FI in data set [1] amounted to 35.54. In addition, the Ratio is listed as 2.1 in data set [2] and 26.5 in data set [3].
As for `CC(=O)O[C@H]1C2=C(C(=O)C(OC(=O)c3ccc(Cl)cc3)=C(C(C)C)C2=O)[C@@]2(C)CCCC(C)(C)[C@@H]2[C@@H]1OC(=O)c1ccc(Cl)cc1`, in data set [1], the FI is 28.97. Besides, the Ratio in data set [2] stood at 1.71; in data set [3] it was 21.6.
Regarding `COc1ccc(CCN(C)CCC[C@](C#N)(c2ccc(OC)c(OC)c2)C(C)C)cc1OC` [DEXVERAPAMIL], in data set [1], the FI turned out to be 36.07. The results for the Ratio in data set [2] and in data set [3] were 2.13 and 26.9, respectively.
